The text below walks through data of a melting point compilation (Tetko et al.; mined from patent text by program, amines drawn as free bases though some values may be those of a salt).

As usually defined, the melting point is the temperature, or range, at which the solid turns liquid. Take `COc1ccc(C(O)CNCCc2ccc(OC)c(OC)c2Cl)cc1` (centres undefined): the melting point lay in the range of 117 to 120 °C.
Molecule `CC(C(=O)O)c1ccc2c(c1)Cc1ccccc1-2` (centres undefined) returned a melting point of 180 to 182 °C.
Next, `CC1(C)Cc2ccoc2C(=O)N1`: 133 to 134 °C.
Next, `O=c1[nH]c2cc(-c3cn4ccccc4n3)ccc2s1`: > 270 °C; `CCOC(=O)C(NC(C)=O)(C(=O)OCC)[C@@H]1CC(=O)C[C@H]1NC(=O)OC(C)(C)C` (relative stereo): 135 to 136 °C.
As for `Cc1ccc(S(=O)(=O)Nc2cc3c(c(C(=O)O)c2)NCCO3)cc1`, the melting point is 213 to 215 °C.
Next, `NS(=O)(=O)c1cc(C(=O)c2csc3ccccc23)ccc1Cl`: 154 to 156 °C.
With `CCN(CC)C(=O)Nc1ccccc1` the figure was 81 to 85 °C; with `O=C(NCc1ccc(F)cc1)c1nc2n(c(=O)c1OCc1ccccc1)CCN2Cc1ccccc1`, 125 °C.
For the molecule `Nc1nc2c(ncn2Cc2ccccc2)c(=O)[nH]1`, the melting point fell in the range of 305 to 308 °C.
With `CCOc1ccccc1-c1ncc(-c2nnn[nH]2)c(=O)[nH]1` the figure was 289 to 290 °C.
Regarding `CN(C)CCCCNC(=O)Cn1ncc(-c2ccccc2)c1-c1ccccc1`, the melting point was 77 to 79 °C.
`c1ccc2c3c([nH]c2c1)CCN(CCCCc1ccncc1)C3` returned a melting point of 204 to 206 °C.
With `CC1=CSC(C)C(=O)N1` (centres undefined) the figure was 78 to 80 °C; with `O=C(O)C1CCc2c(oc3ccc(Cl)cc23)C1` (centres undefined), 194 to 198 °C.
With `Cn1cc(C(=O)Nc2cc(Cl)ccc2-c2cccc(Cl)c2)c(C(F)(Cl)Cl)n1` the figure was 145 to 146 °C; with `N#Cc1ccc(COc2cc(O)cc(C(=O)Nc3ccc(C#N)cc3)c2)cc1`, 199 to 201 °C.
`O=C(CC1CCCCC1)Nc1c(Cl)ccc2nc(CCCNCCCO)ccc12` came in with a melting point of 159 to 163 °C.
For `Cc1cc(C#N)cc(C)c1C(=O)CBr`, the melting point amounted to 76 °C.
With `O=C(O)c1ccc(-c2ccc(Cl)cc2)cc1` the figure was 191 to 192 °C; with `CC1(C)CC(=O)C(c2cccc(Cl)c2)C(=O)C1`, 155 to 158 °C.
Next, `Nc1cc(-c2noc(-c3cnn4c(C(F)(F)F)cc(-c5ccc(Cl)cc5)nc34)n2)ccn1`: 252 °C.
With `CSc1nnc2c(=O)[nH]c(-c3ccccc3OCC3CC3)nc2n1` the figure was 235 to 236 °C; with `O=S(=O)(c1cccs1)N(CCO)c1cccc2cc(-c3nccs3)[nH]c12`, 170 to 171 °C; with `CC(=O)OCCCCc1c(C)[nH]c(C(=O)OC(C)(C)C)c1C`, 62 °C.
The molecule `COc1cc(CP(=O)(OC)OC)c2c(CP(=O)(OC)OC)cc(OC)cc2c1` showed a melting point of 135 to 136 °C.
With `CCCCCCCCOC(=O)CCP(=O)(CCC(N)=O)Cc1cc(C(C)(C)C)c(O)c(C(C)(C)C)c1` (centres undefined) the figure was 154 to 157 °C; with `CC(=O)c1ccc(NS(C)(=O)=O)c(S(=O)c2ccc(F)cc2F)c1` (centres undefined), 151 to 152 °C.
Next, `CC(C)Oc1cccc2c1O[C@@H](COS(C)(=O)=O)CC2`: 77 to 78 °C.
Next, `CCn1nc2c(N)nc3ccccc3c2c1CC1(O)CCN(C(C)=O)CC1`: 231 to 232 °C; `CC#CCOc1ccc(S(=O)(=O)C2(C(=O)O)CCN(Cc3ccc(C)cc3)CC2)cc1`: 188 °C.
The molecule `CS(=O)(=O)c1ccc(Br)cc1Br` gave a melting point of 124 to 126 °C.
Next, `CCOc1c(Nc2cccc(C3C(C(=O)OC)=C(C)NC(C)=C3C(=O)OC)c2)c(=O)c1=O`: 249 to 252 °C.
As to `CN[C@@H]1CN(C(=O)c2nn(C)c3ccccc23)C[C@@H]1C` (relative stereo), the melting point was in the range of 89 to 91 °C.
With `CCn1c2ccc(C)cc2c2ccc3ccccc3c21` the figure was 111 to 114 °C; with `CCCCCCCCCCOc1cc(O)cc(OCCCCCCCCCC)c1`, 48 to 50 °C; with `O=C1CCC(N2C(=O)c3cccc(NC(=O)COCc4ccccc4)c3C2=O)C(=O)N1` (centres undefined), 204 to 206 °C.
The molecule `Clc1ccc(OCCN2CCN3CC=C(c4ccncc4)N=C32)cc1` had a melting point of 211 to 213 °C.
In turn, `CCN(CC)c1ccccc1C(=O)O` gave a melting point of 122 to 123 °C.
In the case of `Nc1nc2ccccc2c2c1nc(CO)n2CC1(O)CCOCC1`, the melting point is > 250 °C.
`CNC(=O)N(C)C1c2ccccc2Oc2ccccc21` yielded a melting point of 173 to 174 °C.
Regarding `Nc1nc(Cc2ccc(OCc3ccccc3)cc2)nc2nc(-c3ccco3)nn12`, the melting point fell in the range of 220 to 222 °C.
Next, `Sc1nc2cc(N3CCNCC3)ccc2[nH]1`: 260 to 261 °C; `Cc1cc2ccccc2n1-c1ccnc2ccccc12`: 78 to 80 °C; `CCOC(=O)C(C)(C)Sc1ccc(O)cc1`: 68 to 69 °C.
With `O=C(NCCOc1ccc(CC(Oc2ccccc2)C(=O)O)cc1Br)c1ccc(-c2ccccn2)cc1` (centres undefined) the figure was 83 to 84 °C.
Next, `C=Cc1cc2cccnc2c(-c2cccc([N+](=O)[O-])c2)n1`: 145 to 151 °C; `CCOC(=O)C1=C(C)NC(C(OCC)OCC)=C(C(=O)OCC)C1c1ccccc1C(F)(F)F` (centres undefined): 82 to 83 °C.
`O=C1NC(=O)C(CCCCCc2ccc(O)cc2)O1` (centres undefined) gave a melting point of 96 to 97 °C.
With `COc1ccc(Cl)cc1C(=O)NCCc1ccc(CC2SC(=O)NC2=O)cc1` (centres undefined) the figure was 182 °C; with `O=P(O)(O)CNC1CCCCC1`, 279 to 284 °C.
Next, `Cc1ccc(C(=O)C2(O)CCCCC2)cc1C`: 103 to 104 °C.
With `CCN(CC)CCOC1=C(c2ccccc2)CN(Cc2ccc(Cl)cc2)C1=O` the figure was 143 to 145 °C.
`CC(=O)c1c[nH]c2c3c(ccc12)OCC3` displayed a melting point of 233 to 234 °C.
Next, `CC(C)n1nc(-c2sc(NC(C)(C)C)nc2-c2ccccc2)ccc1=O`: 189 to 190 °C; `O=c1c2ccc(Cl)cc2[nH]c2c(O)nn(Cc3ccsc3)c(=O)c12`: > 250 °C.
Next, `O=C1N=NC(Cc2ccc(OCCc3coc(-c4ccccc4)n3)cc2)O1` (centres undefined): 142 to 144 °C; `CS(=O)c1ccc(CSc2nnc(-c3ccc4[nH]ncc4c3)o2)cc1C(F)(F)F` (centres undefined): 170 to 171 °C.
The molecule `CC(Oc1ccc(F)cc1F)(C(=O)Nc1nc(CC(=O)O)c(Cl)s1)c1ccc(S(C)(=O)=O)cc1` (centres undefined) returned a melting point of 109 to 111 °C.
Molecule `Cn1cc(-c2cc(-c3ccsc3)ccn2)n(-c2ccc(C(C)(C)C#N)cc2)c1=O` registered a melting point of 209 °C.
`CC(C)(C)OC(=O)N[C@@H](CC(=O)NCCC(=O)OCc1ccccc1)C(=O)OCc1ccccc1`: the melting point lay in the range of 77 to 78 °C.
Next, `CCCn1c(=O)c2c(nc(/C=C/c3ccc(Cl)cc3)n2C)n(CCC)c1=O`: 175 to 187 °C; `CC(=O)Nc1ccc(-c2ncc(NC(=O)OCc3ccccc3)c(=O)n2CC(=O)NC(Cc2ccccc2)C(=O)C(F)(F)F)cc1` (centres undefined): 235 to 240 °C; `O=C(O)C1CCCN(C(=O)c2cccc(C(=O)C3CCC4(CCNCC4)CC3)c2)C1` (centres undefined): 146 to 148 °C.
`COc1cc(Nc2nccc(-c3nccs3)n2)cc(OC)c1OC` showed a melting point of 159 °C.
The molecule `O=C(O)C(Cl)=C(Cl)C(=O)N(Cc1ccco1)Cc1ccco1` gave a melting point of 149 °C.
As for `CN1CCN(c2ccc3nc(-c4ccc(F)cc4)c(I)n3n2)CC1`, the melting point was determined as 180 °C.
`CCc1csc(-c2ccc3c(c2)C=C(C(=O)Nc2ccc(CN(C)C4CCOCC4)cc2)CCN3C)c1`: the melting point was in the range of 139 to 141 °C.
For `COc1ccc2c(c1)c(CCNC(C)=O)cn2S(=O)(=O)c1ccc(C)cc1`, the melting point lay in the range of 132 to 133 °C.
Next, `O=C(O)CCc1ccc(Oc2ccc3c(c2)S(=O)(=O)N=C2CCCN23)cc1`: 216 to 222 °C.
With `O=C(N[C@H](Cc1ccc(CC(F)(F)C(F)(F)F)cc1)[C@@H](O)c1cccc(Cl)c1)c1cccc2c(Cl)cccc12` (racemic) the figure was 216 to 217 °C.
`O=C(O)c1cc(Cl)cc(Cl)c1NS(=O)(=O)c1ccc(Cl)cc1` came in with a melting point of 273 to 276 °C.
As for `COC(=O)CNS(=O)(=O)c1ccc(CCN2CC=C(c3c[nH]c(-c4ccc(F)cc4)c3-c3ccncc3)CC2)cc1`, the melting point was 220 to 223 °C.
With `Cc1nccn1-c1cccc(C2=Nc3cc(O)c(-c4ccccc4F)cc3NC(=O)C2)c1` the figure was > 250 °C; with `O=S(=O)(Cl)c1ccc(-c2ccc3c(c2)OCO3)s1`, 117 to 119 °C.
Take `NS(=O)(=O)c1ccco1`: the melting point lay in the range of 120 to 122 °C.
The molecule `O=C(Cl)N1CC(Oc2cccc(Br)c2)C1` came in with a melting point of 87 to 88 °C.
`CN(c1ccc(Cl)cc1)c1nc(=O)c2ccc(-c3ccccc3)nc2s1` gave a melting point of 279 to 280 °C.
The molecule `Cc1[nH]c2ccc(F)cc2c1CCC(=O)N1CCN(c2ccccc2)CC1` came in with a melting point of 170 to 172 °C.
`C(=C\c1nc(COc2ccc(CCn3cncn3)cc2)co1)/c1ccccc1` had a melting point of 136 to 137 °C.
For `Cc1cc2c(cc1Oc1ccc(C(=O)NNc3ccc4c(C)nn(C)c4n3)o1)C(C)(C)CC(C)C2(C)C` (centres undefined), the melting point was in the range of 169 to 170 °C.
Next, `N#C[C@@H]1C[C@@H]2C[C@@H]2N1C(=O)[C@@H](NC(=O)OCc1ccccc1)C12CC3CC(CC(O)(C3)C1)C2`: 105 to 106 °C; `CCOC(=O)c1cc(-c2ccncc2)c(C(F)(F)F)nc1N`: 121 to 125 °C.
`OC1CCC(Oc2ccc3[nH]ncc3c2)CC1` (centres undefined) registered a melting point of 112 to 118 °C.
In turn, `Cc1nc(-c2cc3cccc(NS(=O)(=O)c4cccs4)c3[nH]2)sc1C` came in with a melting point of 210 to 211 °C.
With `CC(C)(C)C(=O)c1occc1C(=O)O` the figure was 85 to 89 °C.
`CCCCCCCSc1nn2c(=O)c(OC)cnc2s1` displayed a melting point of 68 to 71 °C.
With `CC1(C)CC(=C(c2ccc(O)cc2)c2ccc(C(N)=O)cc2)CC(C)(C)C1` the figure was 209 to 210 °C.
Next, `O=C1COc2cc(C(O)(C(F)(F)F)C(F)(F)F)ccc2N1`: 224 to 225 °C.
